The record followed here is US20190119284A1, “ErbB Inhibitors and Uses Thereof” (The Regents of the University of California, priority 2016, published 2019).

In assay [1] the target is JAK1 (Homo sapiens, UniProt P23458). Description: Nanosyn in vitro kinase profiling: JAK1. The class given is biochemical. As to conditions: compound at 1 μM.
The target in assay [2] is PRKACA (Homo sapiens, UniProt P17612). Briefly: Nanosyn in vitro kinase profiling: PRKACA. As to conditions: compound at 1 μM. In kind it is biochemical.
In assay [3] the test system is CHL-1 cells. Description: growth of CHL-1 cells over 96 h (IncuCyte Zoom confluence). In kind it is cell-based. As to conditions: CHL-1, 96 h, compared with lapatinib.
In assay [4] the target is T1, Axl+ Ba/F3 cells (Homo sapiens, UniProt P30530).
T1 sequence (P30530 1-894): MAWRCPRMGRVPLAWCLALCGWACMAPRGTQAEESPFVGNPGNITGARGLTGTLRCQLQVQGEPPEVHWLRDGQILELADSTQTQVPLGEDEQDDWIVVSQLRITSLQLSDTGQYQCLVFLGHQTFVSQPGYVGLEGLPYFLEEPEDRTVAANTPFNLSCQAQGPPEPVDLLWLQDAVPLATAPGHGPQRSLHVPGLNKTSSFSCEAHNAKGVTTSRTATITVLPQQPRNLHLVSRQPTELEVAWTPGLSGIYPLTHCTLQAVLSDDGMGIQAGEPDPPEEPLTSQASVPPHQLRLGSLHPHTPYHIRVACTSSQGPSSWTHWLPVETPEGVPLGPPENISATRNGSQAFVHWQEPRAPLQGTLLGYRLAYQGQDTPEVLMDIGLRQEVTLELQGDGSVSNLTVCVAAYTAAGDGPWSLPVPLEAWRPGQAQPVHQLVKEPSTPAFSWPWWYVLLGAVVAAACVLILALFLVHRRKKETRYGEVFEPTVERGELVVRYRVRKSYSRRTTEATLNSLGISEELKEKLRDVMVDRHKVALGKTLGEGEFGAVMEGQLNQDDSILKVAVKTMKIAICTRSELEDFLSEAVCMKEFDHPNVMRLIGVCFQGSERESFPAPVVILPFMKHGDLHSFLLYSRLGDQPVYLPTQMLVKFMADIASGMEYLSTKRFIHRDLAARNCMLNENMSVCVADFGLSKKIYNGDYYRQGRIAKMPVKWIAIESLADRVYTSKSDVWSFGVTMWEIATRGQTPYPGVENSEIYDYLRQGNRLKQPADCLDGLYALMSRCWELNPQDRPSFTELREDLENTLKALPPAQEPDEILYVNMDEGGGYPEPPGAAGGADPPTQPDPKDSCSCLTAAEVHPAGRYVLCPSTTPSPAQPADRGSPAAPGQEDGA
Description: Ba/F3 proliferation assay, Axl+. As to conditions: Table 4; ± S.D., n = 3; 48 h Cell Titer Glo; read-out: IC50, Axl. The class given is cell-based. Summed up: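 Ba/F3 cells transduced with Axl and selected for IL-3-independent growth. Cells combined with drug dilutions, and with IL-3 (10 ng/mL) or NRG (6.25 ng/mL) where needed, for 48 h at 37 °C. CellTiter-Glo read, normalized to DMSO, fitted with variable-slope log(inhibitor) regression.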
In general terms: Cellular ATP, detected with luciferase, serves as a proxy for viable cell number.

For assay [5], the target named is T2, 2YF-VC/3wt + NRG Ba/F3 cells (Homo sapiens, UniProt P04626, DELINS776-776VC/Y1005F/Y1023F/Y1112F/Y1127F/Y1139F/Y1196F/Y1221F/Y1222F/Y1248F, cells depend on it).
T2 construct: reported HER2 oncogenic mutants in the HER2YF construct
T2 sequence (P04626 with tags, fused parts or gaps with the stated changes): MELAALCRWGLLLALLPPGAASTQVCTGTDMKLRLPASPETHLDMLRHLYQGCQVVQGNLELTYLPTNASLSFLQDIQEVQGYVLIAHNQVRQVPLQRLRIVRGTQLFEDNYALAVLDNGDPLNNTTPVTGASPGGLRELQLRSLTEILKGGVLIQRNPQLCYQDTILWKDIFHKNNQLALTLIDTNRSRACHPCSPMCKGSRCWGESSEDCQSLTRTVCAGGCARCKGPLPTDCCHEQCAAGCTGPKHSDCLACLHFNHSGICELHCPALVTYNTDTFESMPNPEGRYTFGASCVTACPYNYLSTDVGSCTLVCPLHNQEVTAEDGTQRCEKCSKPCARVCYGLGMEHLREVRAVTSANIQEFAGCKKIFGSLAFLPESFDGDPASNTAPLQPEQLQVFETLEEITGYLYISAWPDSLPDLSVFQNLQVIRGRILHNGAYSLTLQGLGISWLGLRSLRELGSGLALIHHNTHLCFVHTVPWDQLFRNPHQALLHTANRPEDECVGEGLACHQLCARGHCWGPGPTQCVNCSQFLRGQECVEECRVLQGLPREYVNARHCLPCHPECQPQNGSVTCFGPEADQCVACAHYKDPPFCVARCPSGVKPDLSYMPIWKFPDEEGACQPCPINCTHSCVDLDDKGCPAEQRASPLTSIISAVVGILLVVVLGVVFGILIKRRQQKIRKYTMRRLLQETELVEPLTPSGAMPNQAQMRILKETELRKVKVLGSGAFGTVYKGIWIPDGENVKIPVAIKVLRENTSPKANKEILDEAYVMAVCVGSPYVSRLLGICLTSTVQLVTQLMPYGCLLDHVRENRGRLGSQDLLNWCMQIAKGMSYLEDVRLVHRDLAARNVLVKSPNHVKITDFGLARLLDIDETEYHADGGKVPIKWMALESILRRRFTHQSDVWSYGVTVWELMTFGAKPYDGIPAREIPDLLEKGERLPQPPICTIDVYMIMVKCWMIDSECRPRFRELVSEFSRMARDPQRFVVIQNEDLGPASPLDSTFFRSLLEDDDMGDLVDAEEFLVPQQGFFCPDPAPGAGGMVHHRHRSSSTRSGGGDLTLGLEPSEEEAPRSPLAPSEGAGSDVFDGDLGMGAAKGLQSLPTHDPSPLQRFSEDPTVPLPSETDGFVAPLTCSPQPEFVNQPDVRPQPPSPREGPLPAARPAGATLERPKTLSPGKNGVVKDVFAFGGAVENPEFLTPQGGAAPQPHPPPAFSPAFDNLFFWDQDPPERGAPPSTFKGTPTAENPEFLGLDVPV
Briefly: Ba/F3 proliferation assay, 2YF-VC/3wt + NRG. In kind it is cell-based. As to conditions: Table 4; ± S.D., n = 2; read-out: IC50, 2YF-VC/3wt + NRG. Here is the method:
For the 2YF/3wt cells, the parental cells were first transduced with HER3 according to the protocol above and were then spun down at 500×g for 5 min and re-suspended in media supplemented with 10 ng/mL IL-3 and 3 μg/mL puromycin (Invitrogen). Cells were maintained in these conditions for seven days, passaging as required. After seven days the cells were spun down, washed with fresh media, and then used for a subsequent round of transduction according to the protocol above with HER2YF virus. […] The cells were maintained in these conditions for seven days, passaging as required. After seven days the cells were spun down, washed with fresh media, and then suspended in media supplemented with 10 ng/mL of NRG. Cells were maintained in these conditions for seven days to select for a NRG dependent population of 2YF/3wt Ba/F3 cells that were then maintained as described above. The same protocol was used for the 2YF-L755S/3wt, 2YF-YVMA/3wt, and 2YF-VC/3wt cell lines using the indicated constructs.
Proliferation Assays. […] The following day media was changed to fresh media that contained either DMSO or the indicated concentration of drug plus NRG (50 ng/mL final concentration) as indicated. […] For all normalized assays, proliferation was normalized to the DMSO control condition. […]

Assay [6] concerns the target CAMK4 (Homo sapiens, UniProt Q16566). Description: Nanosyn in vitro kinase profiling: CAMK4. The class given is biochemical. The settings on record: compound at 1 μM.
For assay [7], the system named is 2YF/3wt + IL-3 Ba/F3 cells. Description: Ba/F3 proliferation assay, 2YF/3wt + IL-3. As to conditions: Mus musculus, BaF3; Table 4; ± S.D., n = 3; 48 h Cell Titer Glo. In kind it is cell-based. How it is done: To validate the screen and test the effectiveness of counter-screening with either the same 2YF/3wt Ba/F3 cell line or the parental Ba/F3's in the presence of IL-3 to remove cytotoxic primary hits, we first tested a panel of kinase inhibitors with established mechanisms of action.
Proliferation Assays. For adherent cell lines, cells were plated onto opaque white 96 well plates (Greiner cat #655083) and allowed to adhere overnight. The following day media was changed to fresh media that contained either DMSO or the indicated concentration of drug plus NRG (50 ng/mL final concentration) as indicated. Plates were incubated at 37° C. for 72 h and proliferation was read out using Cell Titer Glo (Promega) according to the manufacturer's protocol. For Ba/F3 cell proliferation, cells, drug dilution, and any necessary growth factors (10 ng/mL IL-3 or 6.25 ng/mL NRG) were combined in a well of a 96 well plate. Plates were incubated at 37° C. for 48 h and proliferation was read out using Cell Titer Glo according to the manufacturer's protocol. For all normalized assays, proliferation was normalized to the DMSO control condition. All graphs were plotted in GraphPad Prism 6 and fit with a non-linear regression of the log(inhibitor) vs response with a variable slope where shown. All graphs are averages (+/−standard deviation) of biological triplicates each performed in technical triplicate unless otherwise noted. If only one biological replicate was performed standard deviations were derived from the technical replicates.

For assay [8], the system named is HER2 mutants biased towards the active conformation (NCI-H1781 cells). Briefly: signaling in NCI-H1781 cells after 15 min. The class given is cell-based. As to conditions: NCI-H1781, dose response.

Chain of JAK1 (P23458 whole entry, species assumed): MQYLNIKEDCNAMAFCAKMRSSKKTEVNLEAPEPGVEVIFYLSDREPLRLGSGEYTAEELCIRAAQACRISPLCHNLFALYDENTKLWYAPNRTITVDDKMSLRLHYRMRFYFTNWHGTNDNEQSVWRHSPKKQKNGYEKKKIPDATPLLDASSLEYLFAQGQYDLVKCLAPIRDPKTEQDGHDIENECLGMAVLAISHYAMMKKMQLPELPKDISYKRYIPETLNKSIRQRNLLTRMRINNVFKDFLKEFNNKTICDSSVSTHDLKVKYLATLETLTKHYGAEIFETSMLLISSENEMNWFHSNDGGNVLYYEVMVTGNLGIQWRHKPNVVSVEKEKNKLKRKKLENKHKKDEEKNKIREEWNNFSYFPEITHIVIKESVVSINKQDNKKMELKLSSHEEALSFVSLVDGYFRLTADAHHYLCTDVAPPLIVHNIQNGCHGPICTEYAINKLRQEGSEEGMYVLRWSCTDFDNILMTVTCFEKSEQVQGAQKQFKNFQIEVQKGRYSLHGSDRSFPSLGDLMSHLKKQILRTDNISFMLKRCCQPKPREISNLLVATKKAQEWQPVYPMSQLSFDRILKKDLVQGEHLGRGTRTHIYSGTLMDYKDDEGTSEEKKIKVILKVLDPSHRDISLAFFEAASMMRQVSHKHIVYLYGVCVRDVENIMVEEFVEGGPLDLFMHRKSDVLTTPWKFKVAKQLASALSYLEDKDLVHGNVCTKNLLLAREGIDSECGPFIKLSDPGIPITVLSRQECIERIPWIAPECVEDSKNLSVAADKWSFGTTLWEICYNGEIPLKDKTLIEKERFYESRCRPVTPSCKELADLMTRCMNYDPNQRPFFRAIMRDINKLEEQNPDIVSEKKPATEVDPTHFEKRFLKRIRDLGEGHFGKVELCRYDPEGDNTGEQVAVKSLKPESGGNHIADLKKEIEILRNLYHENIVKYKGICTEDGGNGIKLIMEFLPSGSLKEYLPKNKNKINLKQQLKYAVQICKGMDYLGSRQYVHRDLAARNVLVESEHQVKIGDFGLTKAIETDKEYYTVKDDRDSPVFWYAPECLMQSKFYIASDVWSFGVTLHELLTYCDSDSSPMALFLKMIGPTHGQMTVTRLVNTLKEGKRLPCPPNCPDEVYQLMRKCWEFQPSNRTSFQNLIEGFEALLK
Chain of CAMK4 (Q16566 whole entry, species assumed): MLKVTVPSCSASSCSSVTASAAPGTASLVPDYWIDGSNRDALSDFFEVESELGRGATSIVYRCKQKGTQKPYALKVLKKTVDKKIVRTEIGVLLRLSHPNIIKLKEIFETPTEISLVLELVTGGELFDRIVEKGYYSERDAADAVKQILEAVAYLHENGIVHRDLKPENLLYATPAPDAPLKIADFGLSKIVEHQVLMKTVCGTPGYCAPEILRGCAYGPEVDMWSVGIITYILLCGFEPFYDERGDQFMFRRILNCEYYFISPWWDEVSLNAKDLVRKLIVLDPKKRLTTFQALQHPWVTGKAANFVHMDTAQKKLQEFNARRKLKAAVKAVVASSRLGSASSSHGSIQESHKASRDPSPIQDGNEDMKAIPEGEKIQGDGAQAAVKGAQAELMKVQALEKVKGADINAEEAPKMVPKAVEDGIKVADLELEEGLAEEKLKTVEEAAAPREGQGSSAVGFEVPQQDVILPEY

As to `COc1ccc(-c2ccoc2)cc1Nc1ncnc2[nH]cc(-c3cc[nH]n3)c12` [compound 3, N-(5-(furan-3-yl)-2-methoxyphenyl)-5-(1H-pyrazol-3-yl)-7H-pyrrolo[2,3-d]pyrimidin-4-amine], the inhibition at 1 µM was found to be 52% in assay [1], 20% in assay [2] and 0% in assay [6]. Moreover, in assay [3], the “reduction of cell growth (confluence)” value was “more effective at reducing the growth of CHL-1 cells”. Besides, the GI50 in assay [4] was 1170 ± 106 nM; in assay [5] it was 7.7 ± 1 nM. Also, the IC50 in assay [7] came to 2540 ± 217 nM.

With `CS(=O)(=O)CCNCc1ccc(-c2ccc3ncnc(Nc4ccc(OCc5cccc(F)c5)c(Cl)c4)c3c2)o1` [lapatinib], the “binding to HER2 mutants judged by signaling after short treatment” value in assay [8] is “does not efficiently bind to HER2 mutants biased towards the active conformation”. The GI50 in assay [4] is over 3330 nM. Moreover, in assay [7], the IC50 is over 3330 nM.

Usually inhibition stands for the relative decrease from the control value, in per cent. For orientation: IC50 means the concentration needed to halve the response being measured.
